# Data published in patent US20230390298A1, “METHOD AND COMPOSITIONS FOR USE IN PROVIDING MALE CONTRACEPTION” (Eppin Pharma, Inc., priority 2022, published 2023).
# B1: SEMG1: semenogelin, seminal vesicle protein that binds EPPIN on sperm and inhibits progressive motility (protein, UniProt P04279 24-462, looked up)
# Semenogelin-1: QKGGSKGRLPSEFSQFPHGQKGQHYSGQKGKQQTESKGSFSIQYTYHVDANDHDQSRKSQQYDLNALHKTTKSQRHLGGSQQLLHNKQEGRDHDKSKGHFHRVVIHHKGGKAHRGTQNPSQDQGNSPSGKGISSQYSNTEERLWVHGLSKEQTSVSGAQKGRKQGGSQSSYVLQTEELVANKQQRETKNSHQNKGHYQNVVEVREEHSSKVQTSLCPAHQDKLQHGSKDIFSTQDELLVYNKNQHQTKNLNQDQQHGRKANKISYQSSSTEERRLHYGENGVQKDVSQSSIYSQTEEKAQGKSQKQITIPSQEQEHSQKANKISYQSSSTEERRLHYGENGVQKDVSQRSIYSQTEKLVAGKSQIQAPNPKQEPWHGENAKGESGQSTNREQDLLSHEQKGRHQHGSHGGLDIVIIEQEDDSDRHLAQHLNNDRNPLFT
# How the values were obtained:
# human sperm motility = test: live sperm computer-assisted sperm analysis (CASA) assay; type: cell-based; conditions: for inhibitory activity in the CASA sperm motility assay: human spermatozoa
# Description: In another embodiment, a computer-assisted sperm analysis (CASA) can be used as a live cell compound screen for determining the effect of compounds on human sperm motility. Additionally, to facilitate the EC50 evaluation of compounds using different ejaculates, reducing inter-assay variation due to differences in sperm quality in different semen samples, an index of relative motility inhibition (RMI) was developed. This is calculated as: RMI=[% motility*VSL]; percentage of motile sperm (% motility) or the percentage of progressively motile sperm (% progressive motility, RPMI) multiplied by the straight-line velocity (VSL); the average velocity measured in a straight line from the beginning to the end of a track in μm/sec. Normalized RMI can be calculated by dividing the RMI of each experimental condition by its respective DMSO control.
# The live-sperm Computer Assisted Sperm Analysis (CASA) Assays were done as follows.
# Human semen samples were obtained from the Department of Obstetrics and Gynecology, University of North Carolina Memorial Hospital, Chapel Hill, NC. […] Semen samples were allowed to liquefy for 30 minutes and subjected to standard semen analysis to determine acceptability before freezing. All samples were stored in liquid nitrogen, and de-identified by the Department of Obstetrics and Gynecology, University of North Carolina Memorial Hospital, Chapel Hill, NC before further processing. A density gradient (SpermCare catalog number 2221 and 2222, InvitroCare Inc., Frederick MD) was used to prepare spermatozoa for further analysis. At least 3 independent experiments were done per assay, each using several pooled samples from a single donor. Briefly sperm were washed after the density gradient with EP buffer-0.4% human serum albumin and resuspended in the same buffer for compound treatments. Sperm were diluted to 5×10^6/mL in 12×75 mm glass tubes with the appropriate treatment and incubated at 37° C. in 5% CO2. For CASA analysis, sperm were loaded onto slides (CellVison 4 chamber (20 μM), catalog number CV-1020-4CV, Fertility Technology Resources, Murphy NC) and warmed to 37° C. before analysis. Videos of sperm motility were collected using a Nikon ECLIPSE TS2-FL inverted microscope with 10× eyepiece and a 10× negative phase contrast objective and a Basler high speed camera (1280×1024 px, 200 fps, USB 3, CMOS). AVI Videos were analyzed using OpenCASA software (version 2). Units for CASA parameters are as follows: VAP (average path velocity), VSL (straight line velocity), and VCL (curvilinear velocity)=μm/sec (microns/sec); ALH (lateral head amplitude)=μm; BCF (beat cross-frequency)=Hz. The relative mobility index (RMI) is a measure of the effect of compound on sperm and is calculated as the VSL x % normal motility and normalized to the appropriate DMSO control.
# recombinant human EPPIN = biological target: T1, recombinant human EPPIN (Homo sapiens, UniProt O95925); test: Epitope ALPHA (AlphaScreen) assay, EPPIN / anti-EPPIN antibody binding; conditions: EPPIN on donor beads, anti-EPPIN antibody on acceptor beads
# T1 construct: made in house; host or cells: E. coli strain OrigamiB-DE3-pLysS
# Description: Two assays for high throughput screening (HTS) of compounds have been established and validated. In one embodiment, these assays are based on an adaptation of the AlphaScreen™ assay developed by PerkinElmer (Waltham, MA). In the AlphaScreen™ (amplified luminescent proximity homogeneous assay) assay donor and acceptor beads (˜200 nm) are employed to hold interacting protein molecules. When the interacting protein molecules bind (for example EPPIN {on the donor bead} and anti-EPPIN {on the acceptor bead}), single state oxygen molecules diffuse from the donor bead to the acceptor bead (˜4 μsec) and fluorophores subsequently emit light at 520-620 nm. In the primary compound screen, histidine-tagged recombinant human EPPIN is attached to NTA-donor beads and anti-EPPIN (S21C; against the EPPIN C-terminal domain) is attached to protein A-acceptor beads. This epitope specific assay gives strong and stable binding between EPPIN and the antibody.
# Briefly, recombinant histidine-tagged recombinant EPPIN was pre-incubated with Ni-NTA chelate donor beads (catalog number AS101, Perkin Elmer, Waltham MA) and anti-Eppin 007 or anti-Eppin Q20E antibody was pre-incubated with Protein A acceptor beads (catalog number 6760136, Perkin Elmer, Waltham MA) for 30 minutes. Equal volumes of donor and acceptor bead mixtures were pipetted into white opaque 384-well microplates (OptiPlate-384; PerkinElmer, Waltham, MA) in a final volume of 30 μL. Plates were covered with top seal and transferred to a Synergy HTS Multiplatform automated plate reader (Biotek, Winooski, VT). After shaking for 2 min, plates were read with an excitation 680/30 filter, an emission 570/100 filter and data acquired using Gen5 software (Biotek). Each set of samples was pipetted in 4 replicates. The final concentration of assay components was 58 nM EPPIN, 2 nM anti-Eppin 007 or Q20E antibody, 5 μg/ml donor beads and 10 μg/ml acceptor beads in 0.1M Tris pH=8, 0.1% bovine serum albumin and 0.01% Tween-20. Negative controls were performed under the same conditions in the absence of EPPIN or antibody and in the presence of beads only. The antibody 007 used in this assay binds the same epitope that binds the EP055 compound so the two entities compete for binding to EPPIN. Q20E binds the n-terminal part of EPPIN.
# Non-specific interactions of compound with assay components were measured at the same time with the IgG detection kit ([…] biotinylated rabbit IgG) to generate the bead interaction: 10 μg/ml donor and acceptor beads. (catalog number 6760617C, Perkin Elmer).
# A specific signal for each time point was calculated by subtracting the background signal (obtained in the absence of Eppin) from its respective total signal. EC50 values for the binding of EPPIN to specific compounds were calculated by non-linear regression curve fitting using the specific signal obtained after 16 h of incubation using GraphPad Prism version 6.00 for Windows (GraphPad Software, La Jolla California USA, www.graphpad.com).
# T1 sequence (O95925 22-133): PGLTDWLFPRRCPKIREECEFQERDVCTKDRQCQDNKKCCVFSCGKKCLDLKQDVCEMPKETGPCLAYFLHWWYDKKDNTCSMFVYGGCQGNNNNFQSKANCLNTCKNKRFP
molecule,measurement,setting,value
"COC(=O)CCSc1nc(NNC(=O)OC)nc(Nc2ccc(NC(C)=O)c(O)c2)n1 [EP082, methyl 3-({4-[(4-acetamido-3-hydroxyphenyl)amino]-6-{[(methoxycarbonyl)amino]amino}-1,3,5-triazin-2-yl}sulfanyl)propanoate]",inhibitory activity in the CASA sperm motility assay,human sperm motility,inhibitory activity
same,inhibitory activity in the epitope ALPHA assay,recombinant human EPPIN,inhibitory activity
"COC(=O)NNc1nc(Nc2ccc(NC(C)=O)c(O)c2)nc(SCCC(=O)O)n1 [EP083, 3-((4-((4-acetamido-3-hydroxyphenyl)amino)-6-(2-(methoxycarbonyl)hydrazineyl)-1,3,5-triazin-2-yl)thio)propanoic acid]",inhibitory activity in the CASA sperm motility assay,human sperm motility,inhibitory activity
same,inhibitory activity in the epitope ALPHA assay,recombinant human EPPIN,inhibitory activity
"COC(=O)NNc1nc(Nc2ccc(NC(C)=O)c(O)c2)nc(SCCC(C)=O)n1 [EP091, methyl 2-(4-((4-acetamido-3-hydroxyphenyl)amino)-6-((3-oxobutyl)thio)-1,3,5-triazin-2-yl) hydrazine-1-carboxylate]",inhibitory activity in the CASA sperm motility assay,human sperm motility,inhibitory activity
same,inhibitory activity in the epitope ALPHA assay,recombinant human EPPIN,inhibitory activity
"COC(=O)NNc1nc(Nc2ccc(NC(C)=O)c(O)c2)nc(SCCCC(=O)O)n1 [EP096, 4-((4-((4-acetamido-3-hydroxyphenyl)amino)-6-(2(methoxycarbonyl)hydrazineyl)-1,3,5-triazin-2-yl)thio)butanoic acid]",inhibitory activity in the CASA sperm motility assay,human sperm motility,inhibitory activity
same,inhibitory activity in the epitope ALPHA assay,recombinant human EPPIN,inhibitory activity
"COC(=O)CCCSc1nc(NNC(=O)OC)nc(Nc2ccc(NC(C)=O)c(O)c2)n1 [EP098, methyl 4-({4-[(4-acetamido-3-hydroxyphenyl)amino]-6-{[(methoxycarbonyl)amino]amino}-1,3,5-triazin-2-yl}sulfanyl)butanoate]",inhibitory activity in the CASA sperm motility assay,human sperm motility,inhibitory activity
same,inhibitory activity in the epitope ALPHA assay,recombinant human EPPIN,inhibitory activity
"COC(=O)CCSc1cc(NNC(=O)OC)nc(Cc2ccc(NC(C)=O)c(O)c2)n1 [EP100, methyl 3-({2-[(4-acetamido-3-hydroxyphenyl)methyl]-6-{[(methoxycarbonyl)amino]amino}pyrimidin-4-yl}sulfanyl)propanoate]",inhibitory activity in the CASA sperm motility assay,human sperm motility,inhibitory activity
same,inhibitory activity in the epitope ALPHA assay,recombinant human EPPIN,inhibitory activity
"COC(=O)CCSc1cc(NNC(=O)OC)cc(Cc2ccc(CC(C)=O)c(O)c2)n1 [EP101, methyl 3-[(6-{[3-hydroxy-4-(2-oxopropyl)phenyl]methyl}-4-{[(methoxycarbonyl)amino]amino}pyridin-2-yl)sulfanyl]propanoate]",inhibitory activity in the CASA sperm motility assay,human sperm motility,inhibitory activity
same,inhibitory activity in the epitope ALPHA assay,recombinant human EPPIN,inhibitory activity
"CO/N=C/c1ccc(Cc2nc(NNC(=O)OC)cc(SCCC(=O)OC)n2)cc1O [EP102, methyl 3-{[2-({3-hydroxy-4-[(1E)-(methoxyimino)methyl]phenyl}methyl)-6-{[(methoxycarbonyl)amino]amino}pyrimidin-4-yl]sulfanyl}propanoate]",inhibitory activity in the CASA sperm motility assay,human sperm motility,inhibitory activity
same,inhibitory activity in the epitope ALPHA assay,recombinant human EPPIN,inhibitory activity
"CO/N=C/c1ccc(Cc2cc(NNC(=O)OC)cc(SCCC(=O)OC)n2)cc1O [EP103, methyl 3-{[6-({3-hydroxy-4-[(1E)-(methoxyimino)methyl]phenyl}methyl)-4-{[(methoxycarbonyl)amino]amino}pyridin-2-yl]sulfanyl}propanoate]",inhibitory activity in the CASA sperm motility assay,human sperm motility,inhibitory activity
same,inhibitory activity in the epitope ALPHA assay,recombinant human EPPIN,inhibitory activity
"CO/N=C/c1ccc(Cc2cc(NNC(=O)OC)cc(SCCC(=O)O)n2)cc1O [EP104, 3-{[6-({3-hydroxy-4-[(1E)-(methoxyimino)methyl]phenyl}methyl)-4-{[(methoxycarbonyl)amino]amino}pyridin-2-yl]sulfanyl}propanoic acid]",inhibitory activity in the CASA sperm motility assay,human sperm motility,inhibitory activity
same,inhibitory activity in the epitope ALPHA assay,recombinant human EPPIN,inhibitory activity
B1,EC50,"human sperm motility; inhibiting sperm motility and impairing proper function, read-out: calculated EC50 value for inhibiting sperm motility",8.8 µM
